Experimental data reported in ChEMBL document CHEMBL1122334, “New azacannabinoids highly active in the central nervous system” (1983).

Legend:
Format in all cases: functional
Rattus norvegicus [1] = species on record: Rattus norvegicus; assay: The compound was tested for analgesic activity using (RTF) tail-flick test in rat
Rattus norvegicus [2] = assay: The compound was tested for decreasing motor activity in rat at a dose of 10 mg/Kg
Rattus norvegicus [3] = assay: The compound was tested for methamphetamine antagonism in rat at a dose of 80 mg/Kg
Rattus norvegicus [4] = assay: The compound was tested for serotonin antagonism in rat at a dose of 5 mg/Kg
Rattus norvegicus [5] = assay: The compound was tested for serotonin antagonism in rat at a dose of 80 mg/Kg
Rattus norvegicus [6] = assay: The compound was tested for methamphetamine antagonism in rat at a dose of 20 mg/Kg
Mus musculus [7] = assay: The compound was tested for activity to decrease fighting in mouse at a dose of 5 mg/Kg
Rattus norvegicus [8] = assay: The compound was tested for hyperexcitability in rat at a dose of 5 mg/Kg
Rattus norvegicus [9] = assay: The compound was tested for methamphetamine antagonism in rat at a dose of 5 mg/Kg
Rattus norvegicus [10] = assay: The compound was tested for serotonin antagonism in rat at a dose of 20 mg/Kg
Rattus norvegicus [11] = assay: The compound was tested for hyperexcitability in rat at a dose of 10 mg/Kg
Mus musculus [12] = assay: The compound was tested for activity to decrease fighting in mouse at a dose of 10 mg/Kg
Mus musculus [13] = species on record: Mus musculus; assay: The compound was tested for analgesic activity using writhing (W) test in mouse
Rattus norvegicus [14] = assay: The compound was tested for decreasing motor activity in rat at a dose of 2 mg/Kg
Mus musculus [15] = species on record: Mus musculus; assay: The compound was tested for activity to decrease fighting in mouse
Rattus norvegicus [16] = assay: The compound was tested for serotonin antagonism in rat at a dose of 1 mg/Kg
Rattus norvegicus [17] = assay: The compound was tested for methamphetamine antagonism in rat at a dose of 1 mg/Kg
Rattus norvegicus [18] = assay: The compound was tested for serotonin antagonism in rat at a dose of 2 mg/Kg
Rattus norvegicus [19] = assay: The compound was tested for hyperexcitability in rat at a dose of 20 mg/Kg
Rattus norvegicus [20] = assay: The compound was tested for methamphetamine antagonism in rat at a dose of 2 mg/Kg
Rattus norvegicus [21] = assay: The compound was tested for hyperexcitability in rat at a dose of 80 mg/Kg
Rattus norvegicus [22] = assay: The compound was tested for decreasing motor activity in rat. at a dose of 5 mg/Kg
Mus musculus [23] = assay: The compound was tested for analgesic activity using writhing (W) test in mouse at a dose of 10 mg/Kg
Rattus norvegicus [24] = assay: The compound was tested for decreasing motor activity in rat at a dose of 20 mg/Kg
Rattus norvegicus [25] = assay: The compound was tested for hyperexcitability in rat. at a dose of 5 mg/Kg
Mus musculus [26] = assay: The compound was tested for analgesic activity using writhing (W) test in mouse at a dose of 51 mg/Kg
Rattus norvegicus [27] = assay: The compound was tested for decreasing motor activity in rat at a dose of 80 mg/Kg
Rattus norvegicus [28] = assay: The compound was tested for hyper excitability in rat at a dose of 20 mg/Kg
Rattus norvegicus [29] = assay: The compound was tested for hyper excitability in rat at a dose of 80 mg/Kg
Rattus norvegicus [30] = assay: The compound was tested for decreasing motor activity in rat at a dose of 5 mg/Kg

C#CCN1CCC2=C(C1)c1c(O)cc(C(C)C(C)CCCCC)cc1OC2(C)C (centres undefined)
ED50 (Rattus norvegicus [1]): 14 mg/kg | Decrease in activity (Rattus norvegicus [2]): 51% | Decrease in activity (Rattus norvegicus [3]): 73% | Decrease in activity (Rattus norvegicus [4]): 81% | Decrease in activity (Rattus norvegicus [5]): 33% | Decrease in activity (Rattus norvegicus [6]): 80% | Decrease in fighting (Mus musculus [7]): 48% | Possible response (Rattus norvegicus [8]): 29% | Decrease in activity (Rattus norvegicus [9]): 59% | Decrease in activity (Rattus norvegicus [10]): 84% | Possible response (Rattus norvegicus [11]): 71% | Decrease in fighting (Mus musculus [12]): 62% | ED50 (Mus musculus [13]): 4.3 mg/kg

CC(CCCc1ccc(F)cc1)c1cc(O)c2c(c1)OC(C)(C)C1=C2CN(CC(=O)NC(N)=O)CC1 (centres undefined)
ED50 (Rattus norvegicus [1]): 1.6 mg/kg | Decrease in activity (Rattus norvegicus [14]): 88% | ED50 (Mus musculus [15]): 2 mg/kg | Decrease in activity (Rattus norvegicus [16]): 50% | Decrease in activity (Rattus norvegicus [17]): 64% | Decrease in activity (Rattus norvegicus [18]): 72% | Possible response (Rattus norvegicus [19]): 90% | Decrease in activity (Rattus norvegicus [20]): 75% | Possible response (Rattus norvegicus [21]): 100% | Possible response (Rattus norvegicus [8]): 46% | Decrease in activity (Rattus norvegicus [22]): 55% | ED50 (Mus musculus [13]): 0.7 mg/kg

CCCCCC(C)C(C)c1cc(O)c2c(c1)OC(C)(C)C1=C2CN(CC(=O)OCC)CC1 (centres undefined)
increase in response (Mus musculus [23]): 35% | Decrease in activity (Rattus norvegicus [24]): 19% | Possible response (Rattus norvegicus [25]): 0% | Decrease in activity (Rattus norvegicus [3]): 81% | Decrease in activity (Rattus norvegicus [4]): 60% | increase in response (Mus musculus [26]): 51% | Decrease in activity (Rattus norvegicus [5]): 89% | Decrease in activity (Rattus norvegicus [6]): 54% | Decrease in activity (Rattus norvegicus [27]): 60% | Possible response (Rattus norvegicus [28]): 12% | Decrease in activity (Rattus norvegicus [9]): 18% | Decrease in activity (Rattus norvegicus [10]): 56% | Possible response (Rattus norvegicus [29]): 81% | Decrease in activity (Rattus norvegicus [30]): 49%
